Consider four compounds from patent US20080213390A1, “Deuterium Depleted Water (Ddw) Using As Adjuvant In Cancer Therapy For Cytostatics Toxicity Reducing” (priority 2005, published 2008).

The nature of series [1]: Measurement of protein, glycoprotein and serum protein glycolysis. It is filed as in vivo, Wistar rats. Conditions: for Amount of glycolysis with Deuterium Depleted Water: 60 ppm DDW daily diet; for Percentage of decrease of protein glycolysis in animals receiving DDW: DDW versus tap water; for Amount of Glycolysis with Tap Water: tap water daily diet. The source says: The methods used for these measurements are well known (measuring burette and the (glucidic) glucose compound dosing in the reaction with orto-toluidine).

The conditions of series [2]: serum, 8 rats per lot.
How the values of series [3] were obtained:
60 ppm concentration Deuterium Depleted Water was used for healthy adult outbred Wistar rats. Mono-chemotherapy was used to treat these animals using the following cytostatics: Vinblastine (VBL); Cyclophosphamide (CFS); 5-Fluorouracil (5-Fu); Farmarubicine (FARM). The administered doses were:
VBL—0.1 mg/kg body weight;
5-Fu—10 mg/kg body weight; and
FARM—1 mg/kg body weight.
The cytostatics were intra-peritoneally administered (i.p.) for 5 days consecutively.
The animals were distributed into two groups, as:
Animal sacrifice occurred over 5 and 10 days, respectively from the last cytostatic dose. After animal sacrifice, some tests were performed: bio-chemical, cyto-histological and morphological tests (on liver, spleen, kidneys), and tests for 3HTdR incorporation into lymphoid organs (bone marrow and lympho-nodules).
The protective effect of the 60 ppm Deuterium Depleted Water against the toxicity generated by cytostatics were studied using lots of 88 Wistar rats, each lot, males and females, with an average weight of 172 g. The animal lots were established as per GLP on pharmacological studies on laboratory-tested animals.

For series [4] the following is noted: TW-control group (150 ppm Deuterium tap water daily diet).
Description: The studies were performed using samples from peripheral blood, hematogenous marrow and lymphatic ganglions. The prepared samples were classically stained with May-Grünwald-Giemsa.
[5] abbreviates: DDW group (daily diet with Deuterium Depleted Water).
The mark [6] stands for this setting: DDW group, cytostatic i.p. 5 days.
Setting [7] is: TW-control group similarly treated, animals with obvious toxicity signs had to be sacrificed.

The structures appear in SMILES notation. Where two headings read alike, the source gives them in different places.

Description for P450 cyto-chromes: To study it, the cell organelles were separated by repeated centrifugation with a final separation of microsomes at 105,000 g via ultra-centrifugation. At the microsomes level, the P450 cyto-chromes (a member of the iso-enzymes family) activity and concentration are measured, which are the most important indications of enzyme activation (MFO).
The P450 concentration is spectrophotometrically determined after CO and Natriumdithionit reduction of microsomal P450 (Omura and Sato method). […] The enzymatic activity has been determined for a single substratum, namely for p-nitroanisol, which involves a de-metilation reaction.

Consider `O=P1(N(CCCl)CCCl)NCCCO1` (stereo not drawn) [Cyclophosphamide], for which, in series [1], the “Amount of glycolysis with Deuterium Depleted Water” value is listed as 5.47 mg glucides/g proteins, the “Percentage of decrease of protein glycolysis in animals receiving DDW” value is given as 17% and the “Amount of Glycolysis with Tap Water” value came to 6.59 mg glucides/g proteins. Moreover, in series [2] (setting [5]), the “Sialic acid (average values)” value is 2.68 mmol/L. Besides, the “Sialic acid (average values)” value in series [2] (TW-control group) worked out at 2.77 mmol/L. Also, in series [3] (setting [6]), the “signs of toxicity during the 5 days of therapy and post-therapy period” value (from here on “signs”) is “no signs of toxicity”; the “spontaneous mortality” value was “no records of any spontaneous dead animals”. Also, the “spontaneous mortality” value in series [3] (setting [7]) was “spontaneous mortality occurred”. In series [4], the “findings in peripheral blood” value is “anemia and granulopenia”. In addition, in the series with P450 cyto-chromes (group TW-CFS), the “decrease of the phase I and II enzymes” value is “approximately 100%”.

As to `COc1cccc2c1C(=O)c1c(O)c3c(c(O)c1C2=O)C[C@@](O)(C(=O)CO)C[C@@H]3O[C@H]1C[C@H](N)[C@@H](O)[C@H](C)O1` [farmarubicine, Farmarubicine], the “Amount of glycolysis with Deuterium Depleted Water” value in series [1] is 6.3 mg glucides/g proteins. In addition, in series [1], the “Percentage of decrease of protein glycolysis in animals receiving DDW” value is recorded as 35%. Besides, in series [1], the “Amount of Glycolysis with Tap Water” value was determined as 9.72 mg glucides/g proteins. Besides, the “Sialic acid (average values)” value in series [2] (setting [5]) turned out to be 2.62 mmol/L; in series [2] (TW-control group), 2.88 mmol/L. Moreover, the results for the “spontaneous mortality” value in series [3] (setting [6]) and in series [3] (setting [7]) were “no records of any spontaneous dead animals” and “spontaneous mortality occurred”, respectively. Besides, the “signs” value in series [3] (rat, in vivo, ip) is “no signs of toxicity”.

With `CC[C@]1(O)C[C@@H]2CN(CCc3c([nH]c4ccccc34)[C@@](C(=O)OC)(c3cc4c(cc3OC)N(C)[C@H]3[C@@](O)(C(=O)OC)[C@H](OC(C)=O)[C@]5(CC)C=CCN6CC[C@]43[C@@H]65)C2)C1` [vinblastine, Vinblastine], in series [1], the “Amount of glycolysis with Deuterium Depleted Water” value is 7.5 mg glucides/g proteins, the “Percentage of decrease of protein glycolysis in animals receiving DDW” value came to 7% and the “Amount of Glycolysis with Tap Water” value is reported as 8.06 mg glucides/g proteins. Besides, the “Sialic acid (average values)” value in series [2] (setting [5]) is 2.82 mmol/L. Further, the “Sialic acid (average values)” value in series [2] (TW-control group) is 3.00 mmol/L. The compound also displayed a percentage of mortality in series [3] (DDW group (60 ppm DDW daily diet), cytostatic i.p. 5 days) of 25%. In series [3] (TW-control group (tap water daily diet), cytostatic i.p. 5 days), this compound had a percentage of mortality of 66%. Further, the body weight increase result in series [3] (rat, in vivo) was “far more evident”. Moreover, the “signs” value in series [3] (rat, in vivo, ip) is “low intensity toxic effects”.

Turning to `O=c1[nH]cc(F)c(=O)[nH]1` [5-fluorouracil, 5-Fluorouracil], in series [1], the “Amount of glycolysis with Deuterium Depleted Water” value worked out at 4.2 mg glucides/g proteins, the “Percentage of decrease of protein glycolysis in animals receiving DDW” value is listed as 39% and the “Amount of Glycolysis with Tap Water” value worked out at 6.89 mg glucides/g proteins. Moreover, the “Sialic acid (average values)” value in series [2] (setting [5]) turned out to be 2.43 mmol/L. For the same compound, in series [2] (TW-control group), the “Sialic acid (average values)” value was found to be 3.04 mmol/L. For the same compound, the “spontaneous mortality” value in series [3] (setting [6]) is on record as “no records of any spontaneous dead animals”. Besides, the “spontaneous mortality” value in series [3] (setting [7]) was “spontaneous mortality occurred”. The “signs” value in series [3] (rat, in vivo, ip) was “no signs of toxicity”. The “P450 activity relative to the control group” value in the series on P450 cyto-chromes (group of animals treated with Deuterium depleted Water) is listed as “approximately 200%”.
